The source of these data is article PMC10111423, “Antimalarial Imidazopyridines Incorporating an Intramolecular Hydrogen Bonding Motif: Medicinal Chemistry and Mechanistic Studies” (ACS Infectious Diseases, 2023).

In series [1] the test system is chloroquine-sensitive (NF54) strain of P. falciparum. As to the kind of experiment: In vitro asexual blood-stage antiplasmodium pLDH assay, NF54 strain. The class given is cell-based. To be noted: Plasmodium falciparum, NF54; pLDH, 72 h, n ≥ 3; read-out: In vitro antiplasmodium activity IC50 PfNF54 strain. The method, then:
(§1) Compounds were screened against multi-drug-resistant (K1) and sensitive (NF54) strains of P. falciparum in vitro using a parasite lactate dehydrogenase assay (pLDH) (the method is described fully in the Supporting Information). […]
(§2) In vitro Asexual Blood Stage Antiplasmodium Assay
(§3) Parasites were cultured as per the method of Trager and Jensen,1 with modifications. IC50 values were determined using parasite lactate dehydrogenase as a marker for survival (Makler […]
(§4) et al, 1993). The test samples were prepared to a 10 mmol/L stock solution in 100% DMSO.
(§5) Samples were tested as a suspension if not completely dissolved. Further dilutions to the desired starting concentration were freshly prepared in growth media on each occasion of the experiment. The standard antimalarial drugs chloroquine (CQ) and artesunate (Arts) were used as the reference drug in all experiments. A full dose-response was performed for all compounds in a 96-well plate to determine the concentration inhibiting 50% of parasite growth (IC50– value). Test samples were tested at a starting concentration of 6mmol/L, which was then serially diluted 2-fold in growth medium to generate the tested concentration range. The same dilution technique was used for all samples. CQ and Arts were tested from a starting concentration of 1µg/mL. The highest concentration of solvent to which the parasites were exposed was <0.1% and has no measurable effect on the parasite viability (data not shown).
(§6) The assay plate was incubated at 37 °C for 72h in a sealed gas chamber under 3% O2 and 4% CO2 with the balance being N2. After 72h, the wells in the assay plate were gently resuspended, and 15µL from each well was transferred to a duplicate plate containing 100µL of Malstat reagent and 25µL of nitroblue tetrazolium solution in each well. Plates were left to develop for 20 minutes in the dark and then absorbance of each well was quantified using a spectrophotometer at 620nm wavelength.
(§7) The remaining population of parasites at each concentration of the test compound was determined by comparing the absorbance of each well to the absorbance of a well containing […]
(§8) the drug-free control. […]
(§9) The initial 100 µg/mL solution is serially diluted 10-

In series [2] the test system is multidrug-resistant (K1) strain of P. falciparum. As to the kind of experiment: In vitro asexual blood-stage antiplasmodium pLDH assay, K1 strain. In kind it is cell-based. To be noted: Plasmodium falciparum, 72 h, n ≥ 3, read-out: In vitro antiplasmodium activity IC50 PfK1 strain. The method, then:
as §1, §2, §3, §4, §5, §6, §7, §8, §9

The nature of series [3]: In vitro microsomal stability, rat liver microsomes. In kind it is in vitro ADME. To be noted: 1 μM, 0.4 mg/mL protein. The method, then:
(§10) Xenotech, Kansas, USA), suspended in 0.1 M phosphate buffer (pH 7.4). (Details of this assay are described in the Supporting Information.) page 20: fold to attain six assay concentrations of 100-0.001 μg/mL. […] was used as the reference compound in this assay. The highest concentration of DMSO, which was used as the negative control, had no measurable effect on cell viability. After 44 hours of exposure of the cells to the test compounds, a solution of MTT was added. This was followed by an additional 4 hours of incubation at 37 °C. The assay plates were centrifuged, medium removed, and DMSO was added to the crystals. The amount of formazan was ascertained by measuring the absorbance at 540 nm. GraphPad Prism software was then used to generate IC50 values through a non-linear dose-response curve analysis. β-Hematin Inhibition Assay 20 mM stock solutions of controls and test compounds were made in DMSO. A solution […] was added to every well in columns 1-11 of a 96-well plate. 140 μL of water and 40 μL of 305.5 μM NP-40 were added to column 12 to mediate the formation of beta-hematin. 20 μL of test compounds (20 mM) were added to column 12 and 100 μL of this solution serially diluted to column 2, leaving column 1 blank (0 μM of test compound). 178.8 μL aliquot of hematin stock was suspended in 20 ml of a 1 M acetate buffer at pH 4.9. 100 μL of this hematin suspension was then added into each well, and the plates were incubated for ±5 hrs at 37°C. Subsequently, 32 μL of pyridine solution (20% water, 20% acetone, 10% 2M HEPES buffer at pH 7.4 and 50% pyridine) and 60 μL of acetone were added to all wells. The absorbances of plate wells were recorded at 405 nm on a SpectraMax plate reader. Sigmoidal dose-response curves with variable slopes were fitted to the absorbance data using GraphPad Prism to obtain the IC50 values for each compound. In vitro Microsomal Stability Assay The in vitro microsomal stability assay was performed in duplicate in a 96-well micro titre […] individually in human (pool of 50, mixed gender), rat (pool of 711, male Sprague Dawley) and mouse (pool of 1634, male CD1) liver microsomes (final protein concentration of 0.4 mg/mL; Xenotech, Kansas, USA), suspended in 0.1M phosphate buffer (pH 7.4). Incubations were S20 page 21: started by addition of NADPH (1 mM) as cofactor and shaken for 30 minutes at 37 °C. The reactions were then quenched by adding 300 μL of ice-cold acetonitrile containing internal standard (carbamazepine, 0.0236 μg/mL) and centrifuged. The supernatant was transferred to a fresh 96-well plate and analysed by LC-MS/MS (Agilent Rapid Resolution HPLC, AB SCIEX 4500 MS). The relative loss of parent compound over time was monitored and plots (concentration vs. time) were prepared per compound to determine the first order rate constant for compound depletion. This was in turn used to calculate half-life, in vitro intrinsic clearance and in vivo hepatic extraction ratio.6 Metabolite Identification Studies […] microsomes (MLM, male mouse CD1, Lot No. 1510043, Xenotech), magnesium chloride (5 mM) and NADPH (1 mM) in sodium phosphate buffer (100 mM, pH 7.4) for 60 minutes while shaking. The samples were then prepared by ice-cold acetonitrile precipitation, centrifuged, and filtered for LC-MS/MS analysis. […] Fluorescence Live-cell Microscopy […] […]

Series [4] in a line: In vitro microsomal stability, human liver microsomes. To be noted: 1 μM, 0.4 mg/mL protein. In kind it is in vitro ADME. The method, then: as §10

For `CCN(CCNc1cc2[nH]c(C3CCCC3)nc2cn1)Cc1ccc(Cl)cc1O` [Compound 1, 5-Chloro-2-(((2-((2-cyclopentyl-1H-imidazo[4,5-c]pyridin-6-yl)amino)ethyl)(ethyl)amino)methyl)phenol], the values for the concentration for half-maximal inhibition (IC50) in series [1] and in series [2] were 340 nM and 1350 nM, respectively. For the same compound, the “Microsomal EH (hepatic extraction ratio), rat” value in series [3] was 0.75. Also, in series [4], the “Microsomal EH (hepatic extraction ratio), human” value came out at 0.60.
In the case of `CCN(CCNc1cc2[nH]c(-c3cccc(C(F)(F)F)c3)nc2cn1)Cc1ccc(Cl)cc1O` [Compound 14, 5-Chloro-2-((ethyl(2-((2-(3-(trifluoromethyl)phenyl)-1H-imidazo[4,5-c]pyridin-6-yl)amino)ethyl)amino)methyl)phenol], the results for the IC50 in series [1] and in series [2] were 80 nM and 100 nM, respectively. Also, the “Microsomal EH (hepatic extraction ratio), rat” value in series [3] stood at 0.70. In addition, in series [4], the “Microsomal EH (hepatic extraction ratio), human” value worked out at 0.85.
In the case of `CCN(CCNc1cc2[nH]c(C3(C)CC3)nc2cn1)Cc1ccc(Cl)cc1O` [Compound 6, 5-Chloro-2-((ethyl(2-((2-(1-methylcyclopropyl)-1H-imidazo[4,5-c]pyridin-6-yl)amino)ethyl)amino)methyl)phenol], the half-maximal inhibitory concentration (IC50) in series [1] came out at 490 nM; in series [2] it was 6000 nM. In series [3], the “Microsomal EH (hepatic extraction ratio), rat” value stood at 0.73. Besides, in series [4], the “Microsomal EH (hepatic extraction ratio), human” value worked out at 0.71.
For the compound `CCN(CCNc1cc2[nH]c(-c3ccc(C(F)(F)F)nc3)nc2cn1)Cc1ccc(Cl)cc1O` [Compound 19, 5-Chloro-2-((ethyl(2-((2-(6-(trifluoromethyl)pyridin-3-yl)-1H-imidazo[4,5-c]pyridin-6-yl)amino)ethyl)amino)methyl)phenol], the IC50 in series [1] is 380 nM; in series [2], 360 nM. Besides, in series [3], the “Microsomal EH (hepatic extraction ratio), rat” value came to 0.78. The “Microsomal EH (hepatic extraction ratio), human” value in series [4] turned out to be 0.80.
In the case of `CCN(CCNc1cc2[nH]c(C3CC3)nc2cn1)Cc1ccc(Cl)cc1O` [Compound 5, 5-Chloro-2-(((2-((2-cyclopropyl-1H-imidazo[4,5-c]pyridin-6-yl)amino)ethyl)(ethyl)amino)methyl)phenol], the concentration for half-maximal inhibition (IC50) was found to be 390 nM in series [1] and 480 nM in series [2]. Moreover, the “Microsomal EH (hepatic extraction ratio), rat” value in series [3] turned out to be 0.73. For the same compound, the “Microsomal EH (hepatic extraction ratio), human” value in series [4] stood at 0.54.
